Test results as given in paper PMC3231940, “Disposition, metabolism and mass balance of [^14C]apremilast following oral administration” (Xenobiotica; the Fate of Foreign Compounds in Biological …, 2011).
Several values for one entry are separate records, joined by “and”; a condition that tells them apart may be missing. Identical values can stand only once.

Tests used:
[1] = Metabolite profiling by HPLC radiochromatography in plasma, urine and faeces; format: in vivo, human; set-up: key to Plasma (% AUC relative to TRA); share of circulating radioactivity / % of dose excreted, urine: ND: not detected; D: detected by MS, but at concentrations too low to accurately quantify by radiochromatography; details: for % of dose excreted, faeces: faeces collected up to 96-h post-dose; for Plasma (% AUC relative to TRA); share of circulating radioactivity: AUC0-t (unchanged drug or metabolite)/AUC0-48 (TRA) * 100%; for % of dose excreted, urine: urine collected up to 48-h post-dose; for Share of the excreted radioactivity / excreted dose: urine plus faeces; for half-life / Tmax: human; for half-life: read-out: Plasma t½ (converted); for Tmax: male; for Plasma Cmax: plasma radioactivity concentrations and radiochromatography
Description: Individual plasma samples collected from all subjects at 0.5, 1, 2.5, 8, 24, 36 and 48 h post-dose were analysed for metabolite profiling. A pooled sample (equal volume from 0.5,1,2.5,8 and 24 h) from subject 1 was also used for metabolite profiling. Three volumes of acetonitrile were added to each sample, followed by mixing and centrifu-gation. The supernatant was removed and the pellet was washed twice with acetonitrile. The combined superna-tants were evaporated to dryness under a stream of nitrogen. The residues were re-suspended in acetonitrile: 1% formic acid in water (1:1), assayed for extraction recovery and analysed for metabolite profiling.
For each subject, urine samples were pooled using an equal percentage by volume of the 0-4, 4-8, 8-12 and 12-24-h samples. The 24-48-h urine sample from each subject and a pool of the 0-168-h urine samples from subject 1 were also analysed for metabolite profiling. Samples were mixed and centrifuged prior to the supernatants being transferred to fresh tubes for metabolite profiling analysis.
Faecal homogenates for metabolite profiling were pooled using an equal percentage by weight to generate two pools (0-48 h and 48-96 h) for each subject. An additional pool (0-168 h) was prepared using the samples collected from subject 1. An aliquot (approximately 6 g) of each pool was extracted with three volumes of acetonitrile; samples were mixed and centrifuged. The supernatant was removed and the pellets were extracted twice with an additional 12 mL of acetonitrile each time. The combined supernatants were evaporated to dryness under a stream of nitrogen and the residue was re-suspended in a small volume (approximately 400 μL) of acetonitrile: 1% formic acid in water (1:1). Samples were assayed for extraction recovery prior to metabolite profiling.
HPLC analysis for metabolite profiling was performed using a Shimadzu LC-10ADVP (Shimadzu Corp., Columbia, MD) or a Waters 2695 Alliance Separation Module (Waters Corp., Milford, MA) with the autosampler set to an ambient temperature of approximately 22°C. ASPD-10A VPUV-Vis Detector or a Waters 996 Photodiode array detector set to 254 nm was used to detect UV absorbance. [^14C]Apremilast and metabolites were separated using a Phenomenex Luna C 18(2) column (150 × 4.6 mm, 3 μm; Phenomenex, Torrance, CA) equipped with a RP-18 guard column (15×3.2 mm, 7 μm) or using an ACE 3 C18 column (150 × 4.6 mm, 3 μm; Advanced Chromatography Technologies, Aberdeen, Scotland) equipped with an ACE 3 guard column (10×3mm, 3 μm). The mobile phases used were 0.4% formic acid in water; pH 3.2 with ammonium hydroxide (mobile phase A) and acetonitrile (mobile phase B). The column temperature was 30°C and the flow rate was 0.7mL/min. The linear gradient was delivered as follows: 0-5 min to 100% A; 5-20 min to 85% A; 20-30 min hold at 85% A; 30-50 min to 65% A; 50-60 min to 60% A; 60-70 min to 50% A; 70-75 min to 0% A; hold at 0% A until 80 min; return to initial conditions over 2 min.
Radioactivity profiles for excreta were determined by radiochromatography using liquid chromatography-accurate radioisotope counting stop-flow system (LC-ARC; AIM Research Company, Wilmington, DE). Radioactivity was detected using a β-Ram Radioflow detector (IN/US Systems, Brandon, FL) equipped with a 1300-μL liquid cell. Liquid scintillation cocktail and column eluate were mixed at a ratio of 2.5:1. Radioactive peaks were quantified using LC-ARC data handling software. Plasma radioactivity profiles were determined by collecting the column eluate into 96-well Deepwell LumaPlates at a rate of 0.25 min/fraction. The plates were dried and the radioactivity in each well determined using a PerkinElmer TopCount NXT Microplate Scintillation Counter. HPLC radiochromatograms were reconstructed using LC-ARC data handling software.
Pharmacokinetic data were generated by non-compartmental analysis of plasma or whole blood versus time profiles using WinNonlin (version 4.1, Enterprise Edition). […]

[2] = tested on: TNF-α production by human peripheral blood mononuclear cells; experiment: TNF-α production assay in LPS-stimulated PBMC; format: cell-based; details: LPS 1 ng/mL, 16-18 h, ELISA
Description: (§1) PDE4 enzyme was isolated from U937 human monocytic cells and used for testing inhibition in a cAMP hydrolysis assay as previously described ([Schafer et al. 2010]). For the TNF-α production assay, human peripheral blood mono-nuclear cells (PBMC) were isolated from buffy coat of normal donor blood units (Blood Center of New Jersey, East Orange, NJ) by density centrifugation over Ficoll Hypaque (Pharmacia, Piscataway, NJ). Cells were cultured in RPMI 1640 (Life Technologies, Grand Island, NY) supplemented with 5% AB^+ human serum (Gemini Bio-products, Woodland, CA), 2-mM L-glutamine, 100-U/mL penicillin and 100-μg/mL streptomycin (Life Technologies). PBMC (2×10^5 cells) were plated in 96-well flat-bottom Costar tissue culture plates (Corning, NY) in duplicate. Cells were stimulated with lipopolysaccharides (LPS) (from Salmonella abortus equi; Sigma cat.no. L-1887, St.Louis, MO) at a final concentration of 1 ng/mL in the absence or presence of compounds. The compounds were dissolved in DMSO (Sigma) and subsequent dilutions were done in culture medium immediately before use. The compounds were added to cells 1 h before LPS stimulation. The cells were incubated for 16-18 h at 37°C in 5% CO2, and super-natants were then collected, diluted with culture medium and assayed for TNF-α levels by enzyme-linked immunosorbent assay (ThermoFisher, Rockford, IL). Fifty percent inhibitory concentrations (IC50) for the PDE4 enzymatic and TNF-α assay were calculated by non-linear regression analysis using Prism 5.1 (GraphPad Software). Regression curves were sigmoidal dose response curves with maximum and minimum constrained to 100% and 0%, respectively.

[3] = tested on: PDE4 enzyme isolated from U937 human monocytic cells; experiment: PDE4 inhibition, cAMP hydrolysis assay; format: biochemical; details: for IC50: PDE4 from U937 cells, cAMP hydrolysis
Description: as §1

[4] = plasma, radiochromatography, single oral 20-mg dose, mean ± SD
[5] = plasma, radiochromatography, single oral 20-mg dose, median and range
[6] = single oral 20-mg dose, mean ± SD
[7] = radiochromatography, single oral 20-mg dose, mean ± SD

Molecule | % of dose excreted, faeces [1] | IC50 [2] [µM] | Plasma (% AUC relative to TRA); share of circulating radioactivity [1] | % of dose excreted, urine [1] | IC50 [3] [µM] | other results
CS(=O)(=O)C[C@H](c1ccc(O)c(O)c1)N1C(=O)c2cccc(N)c2C1=O [Metabolite M20, N-deacetylated, O-desmethyl, O-desethyl apremilast] | 0.5 % of dose | – | – | – | – | –
CCOc1cc([C@@H](CS(C)(=O)=O)N2C(=O)c3cccc(NC(C)=O)c3C2=O)ccc1O [Metabolite M3, O-desmethyl apremilast] | 5 % of dose and 4.6 % of dose | 5.6 | D | D | 8.3 | Share of the excreted radioactivity / excreted dose [1]: > 4%
hydroxylated N-deacetylated, O-desmethyl apremilast [Metabolite M8] | 1.0 % of dose | – | – | – | – | –
CC(=O)Nc1cccc(C(=O)O)c1C(=O)O [Metabolite M18, 3-acetamide-phthalic acid] | 1.4 % of dose | – | – | – | – | –
O=C(CO)Nc1cccc(C(=O)O)c1C(=O)O [Metabolite M23, hydroxy 3-acetamide-phthalic acid] | 3.0 % of dose | – | – | – | – | –
CCOc1cc([C@@H](CS(C)(=O)=O)NC(=O)c2cccc(NC(C)=O)c2C(=O)O)ccc1OC1OC(C(=O)O)C(O)C(O)C1O (stereo partly shown) [Metabolite M15] | – | – | – | 3.3 % of dose | – | –
CCOc1cc([C@@H](CS(C)(=O)=O)N2C(=O)c3cccc(NC(=O)COC4OC(C(=O)O)C(O)C(O)C4O)c3C2=O)ccc1OC (stereo partly shown) [Metabolite M16] | – | > 10 | 6.6% | 0.6 % of dose | 6.5 | half-life [1, 4]: 11 ± 2.4 h; Tmax [1, 5]: 5.3 h; Plasma Cmax [1, 6]: 27.6±26.0 ngEq/mL; Plasma AUC0-t [1, 7]: 363 ±54 ngEq*h/mL; Plasma AUC0-∞ [1, 7]: 389±91 ngEq*h/mL
COc1ccc([C@@H](CS(C)(=O)=O)N2C(=O)c3cccc(NC(C)=O)c3C2=O)cc1OC1OC(C(=O)O)C(O)C(O)C1O (stereo partly shown) [Metabolite M13] | – | – | 2.4% | 2.0 % of dose | – | Tmax [1, 5]: 2.5 h; Plasma Cmax [1, 6]: 7.5±6.8 ngEq/mL; Plasma AUC0-t [1, 7]: 133±125 ngEq*h/mL
COc1ccc([C@@H](CS(C)(=O)=O)NC(=O)c2cccc(NC(C)=O)c2C(=O)O)cc1O [Metabolite M22] | 0.6 % of dose | – | – | – | – | –
CCOc1cc([C@@H](CS(C)(=O)=O)N2C(=O)c3cccc(N)c3C2=O)ccc1OC1OC(C(=O)O)C(O)C(O)C1O (stereo partly shown) [Metabolite M14, O-desmethyl, N-deacetyl apremilast glucuronide] | – | > 10 | 4.9% | 4.0 % of dose | > 80 | Tmax [1, 5]: 2.5 h; Plasma Cmax [1, 6]: 9.4±4.3 ngEq/mL; Plasma AUC0-t [1, 7]: 269±146 ngEq*h/mL
CCOc1cc([C@@H](CS(C)(=O)=O)N2C(=O)c3cccc(N)c3C2=O)ccc1OC [Metabolite M7, N-deacetyl apremilast] | 0.1 % of dose | 0.13 | D | D | 0.16 | Concentration in circulation relative to apremilast ([1]; plasma): < 2%; PDE4 and TNF-α inhibition activity compared with apremilast ([3]; both assays, in words): IC50 values similar to those of apremilast
CCOc1cc([C@@H](CS(C)(=O)=O)N2C(=O)c3cccc(N)c3C2=O)ccc1O [Metabolite M4, N-deacetylated, O-desmethyl apremilast] | 2.4 % of dose | – | – | – | – | –
CCOc1cc([C@@H](CS(C)(=O)=O)NC(=O)c2cccc(NC(C)=O)c2C(=O)O)ccc1OC [M1/M2] | 0.5 % of dose | 77 | D | 0.9 % of dose | 120 | –
COc1ccc([C@@H](CS(C)(=O)=O)N2C(=O)c3cccc(NC(C)=O)c3C2=O)cc1O [Metabolite M5, O-desethyl apremilast] | – | 4.9 | – | – | 44 | –
CCOc1cc([C@@H](CS(C)(=O)=O)NC(=O)c2cccc(NC(C)=O)c2C(=O)O)ccc1O [Metabolite M9] | 8 % of dose and 7.7 % of dose | – | – | – | – | Share of the excreted radioactivity / excreted dose [1]: > 4%
CCOc1cc([C@@H](CS(C)(=O)=O)N2C(=O)c3cccc(NC(=O)CO)c3C2=O)ccc1O [Metabolite M10, acetamide hydroxylated, O-desmethyl apremilast] | 1.3 % of dose | – | – | – | – | –
CCOc1cc([C@@H](CS(C)(=O)=O)N2C(=O)c3cccc(NC(C)=O)c3C2=O)ccc1O[C@@H]1O[C@H](C(=O)O)[C@@H](O)[C@H](O)[C@H]1O [Metabolite M12, O-desmethyl apremilast glucuronide] | – | > 10 | 38.7% | 34 % of dose and 33.7 % of dose | > 100 | Plasma (% AUC relative to TRA); share of circulating radioactivity ([1]; listed as O-desmethyl apremilast glucuronide): 39%; half-life [1, 4]: 15.8 ± 3.9 h; Tmax [1, 5]: 2.5 h; Plasma Cmax [1, 6]: 111±36 ngEq/mL; Plasma AUC0-t [1, 7]: 2124±331 ngEq*h/mL; Plasma AUC0-∞ [1, 7]: 2446±416 ngEq*h/mL; Share of the excreted radioactivity / excreted dose [1]: 34%
hydroxylated N-deacetylated apremilast [Metabolite M11] | 1.4 % of dose | – | 2.5% | – | – | Plasma Cmax [1, 6]: 20.2±7.6 ngEq/mL; Plasma AUC0-t [1, 7]: 139±89 ngEq*h/mL; Plasma AUC0-∞ [1, 7]: 232±151 ngEq*h/mL; Plasma t½ [1, 7]: 10.7 ± 10.2 h; Plasma Tmax ([1]; radiochromatography, single oral 20-mg dose, median and range): 1.0(0.5-2.5) h
CC(=O)Nc1cccc2c1C(=O)N([C@H](CS(C)(=O)=O)c1ccc(O)c(O)c1)C2=O [Metabolite M19, O-desmethyl, O-desethyl apremilast] | 0.8 % of dose | – | – | – | – | –
